The results in this text go back to ChEMBL document CHEMBL1129848, “Synthesis and evaluation of imidazolidinones as nonpeptide HIV-protease inhibitors” (Bioorg Med Chem Lett, 1997).

The structures appear in SMILES notation.

The target of assay [1] is T1, Human immunodeficiency virus type 1 protease (Human immunodeficiency virus 1, UniProt Q72874). Description: Compound was tested for the inhibitory activity against HIV-protease.
The target of assay [2] is T1, Human immunodeficiency virus type 1 protease. The assay can be described thus: Inhibition of HIV-protease.

Take `O=C1N(Cc2cccc(CO)c2)[C@H](Cc2ccccc2)[C@@H](Cc2ccccc2)N1Cc1cccc(CO)c1`: the Ki (commonly a measure of affinity in units of concentration, obtained from inhibition or displacement) in assay [1] was 15500 nM.
Take `O=C1N(CC2CC2)[C@H]([C@@H](F)Cc2ccccc2)[C@@H]([C@@H](F)Cc2ccccc2)N1CC1CC1`: in assay [2], affinity was put at a Ki of 980 nM.
The same measure, in the same setting: the value for `O=C1N(Cc2cccc(CO)c2)[C@H](CCc2ccccc2)[C@@H](CCc2ccccc2)N1Cc1cccc(CO)c1` was 55 nM; that for `O=C1N(Cc2cccc(CO)c2)[C@H](Cc2ccccc2)CC[C@@H](Cc2ccccc2)N1Cc1cccc(CO)c1` was 170 nM.
Same read-out and setting: the value for `O=C1N(Cc2cccc(O)c2)[C@H]([C@@H](F)Cc2ccccc2)[C@@H]([C@@H](F)Cc2ccccc2)N1Cc1cccc(O)c1` was 560 nM.
Still for that read-out and setting: the value for `O=C1N(Cc2ccc3ccccc3c2)[C@H]([C@@H](F)Cc2ccccc2)[C@@H]([C@@H](F)Cc2ccccc2)N1Cc1ccc2ccccc2c1` was 1400 nM.
Regarding `O=C1N(Cc2cccc(CO)c2)[C@H](CCc2ccccc2)C[C@@H](Cc2ccccc2)N1Cc1cccc(CO)c1`, affinity in assay [2] was put at a Ki of 99 nM.
On the same count and under the same terms, for `O=C(Oc1cccc(CN2C(=O)N(Cc3cccc(OC(=O)c4ccccc4)c3)[C@H]([C@@H](F)Cc3ccccc3)[C@H]2[C@@H](F)Cc2ccccc2)c1)c1ccccc1` the value was 425 nM; for `COC(=O)c1cccc(CN2C(=O)N(Cc3cccc(C(=O)OC)c3)[C@H](CCc3ccccc3)[C@H]2[C@@H](Br)Cc2ccccc2)c1`, 920 nM.
On the same count and under the same terms, the value for `N=C(NO)c1cccc(CN2C(=O)N(Cc3cccc(C(=N)NO)c3)[C@H](CCc3ccccc3)[C@H]2CCc2ccccc2)c1` was 17 nM; that for `COC(=O)c1cccc(CN2C(=O)N(Cc3cccc(C(=O)OC)c3)[C@H](CCc3ccccc3)[C@H]2CCc2ccccc2)c1` was 470 nM; that for `O=C1N(Cc2cccc(CO)c2)[C@H]([C@@H](O)Cc2ccccc2)[C@@H](CCc2ccccc2)N1Cc1cccc(CO)c1` was 23 nM.
Turning to `COC(=O)c1cccc(CN2C(=O)N(Cc3cccc(C(=O)OC)c3)[C@H](CCc3ccccc3)[C@H]2[C@@H](O)Cc2ccccc2)c1`, the inhibitory constant (Ki) in assay [2] stood at 100 nM.
Still for that read-out and setting: the value for `C=CCN1C(=O)N(CC=C)[C@H]([C@@H](F)Cc2ccccc2)[C@H]1[C@@H](F)Cc1ccccc1` was 2500 nM.
